Counter-ions that a name gives are not always drawn. Like-named read-outs stand apart in the source and are kept apart here.
Key:
[1] = cited from earlier work
[2] = Solubility of nalmefene HCl in water as a function of pH; assay type: physicochemical; settings: aqueous buffer, read-out: Matematically determined solubility in water
Procedure: Cs is the water solubility of nalmefene.
Because the water solubility of nalmefene was not available in the literature for all the pH values used in the permeation study, the solubilities at pH values 6.5, 7.0, 7.5, and 8.0 were determined matematically from a diagram that described the logarithm of the solubility listed on Table 5 as a function of pH (Cs,pH).

Q: Which Solubility in water ([1]; pH 2.25) does the source give for `C=C1CC[C@@]2(O)[C@H]3Cc4ccc(O)c5c4[C@@]2(CCN3CC2CC2)[C@H]1O5` [Nalmefene HCl] here?
A: 128 mg/mL

Q: And the Solubility in water ([1]; pH 5.71)?
A: 131 mg/mL

Q: And the Solubility in water ([1]; pH 6.115)?
A: 133 mg/mL

Q: What about the Solubility in water ([1]; pH 6.25) of the same compound?
A: 124 mg/mL

Q: What about the Solubility in water ([1]; pH 7.85) of the same compound?
A: 1.09 mg/mL

Q: And the Solubility in water ([1]; pH 8.5)?
A: 0.180 mg/mL

Q: And the Solubility in water ([1]; pH 9.15)?
A: 0.090 mg/mL

Q: What about the Solubility in water ([1]; pH 10.4) of the same compound?
A: 0.230 mg/mL

Q: What about the solubility ([2]; pH 6.5, from diagram of log solubility of Table 5 vs pH) of the same compound?
A: 112 mg/mL

Q: And the solubility ([2]; pH 7.0, from diagram of log solubility of Table 5 vs pH)?
A: 88.6 mg/mL

Q: What about the solubility ([2]; pH 7.5, from diagram of log solubility of Table 5 vs pH) of the same compound?
A: 31.9 mg/mL

Q: And the solubility ([2]; pH 8.0, from diagram of log solubility of Table 5 vs pH)?
A: 0.44 mg/mL

Reference: patent US20030153590A1, “Method of treating alcoholism or alcohol abuse” (OY CONTRAL PHARMA LTD, priority 2001, published 2003)
